According to ChEMBL document CHEMBL1156730, “Structure-activity relationships of new inhibitors of breast cancer resistance protein (ABCG2)” (Bioorg Med Chem, 2008):

Columns and labels:
Assay type in all cases: cell-based; call rule not given here
[1] = target: T1, Broad substrate specificity ATP-binding cassette transporter ABCG2 (Homo sapiens, UniProt Q9UNQ0); assay: Inhibition of ABCG2 in human mitoxantrone-resistant MCF7 cells by Hoechst 33342 assay
T1 sequence (Q9UNQ0 whole entry): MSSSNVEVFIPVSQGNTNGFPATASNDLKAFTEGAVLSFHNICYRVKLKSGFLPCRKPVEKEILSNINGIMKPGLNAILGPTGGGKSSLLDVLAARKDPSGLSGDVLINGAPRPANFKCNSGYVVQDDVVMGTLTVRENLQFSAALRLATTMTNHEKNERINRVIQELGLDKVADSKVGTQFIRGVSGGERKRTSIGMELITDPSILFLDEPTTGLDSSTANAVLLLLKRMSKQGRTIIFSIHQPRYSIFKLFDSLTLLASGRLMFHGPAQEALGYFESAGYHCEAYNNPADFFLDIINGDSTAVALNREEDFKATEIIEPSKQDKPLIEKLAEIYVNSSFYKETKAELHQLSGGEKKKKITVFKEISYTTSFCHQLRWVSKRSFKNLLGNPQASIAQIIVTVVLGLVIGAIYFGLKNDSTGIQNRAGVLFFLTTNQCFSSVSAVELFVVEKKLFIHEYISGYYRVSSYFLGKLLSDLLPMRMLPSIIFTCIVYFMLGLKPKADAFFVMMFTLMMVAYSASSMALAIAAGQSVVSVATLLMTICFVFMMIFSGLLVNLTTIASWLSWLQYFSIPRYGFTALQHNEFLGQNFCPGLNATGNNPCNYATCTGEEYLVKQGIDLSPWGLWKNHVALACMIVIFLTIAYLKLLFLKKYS

[2] = target: ATP-dependent translocase ABCB1 (Homo sapiens, UniProt P08183); assay: Inhibition of P-gp in human adriamycin-resistant A2780 cells by Hoechst 33342 assay
ATP-dependent translocase ABCB1, sequence (P08183 whole entry): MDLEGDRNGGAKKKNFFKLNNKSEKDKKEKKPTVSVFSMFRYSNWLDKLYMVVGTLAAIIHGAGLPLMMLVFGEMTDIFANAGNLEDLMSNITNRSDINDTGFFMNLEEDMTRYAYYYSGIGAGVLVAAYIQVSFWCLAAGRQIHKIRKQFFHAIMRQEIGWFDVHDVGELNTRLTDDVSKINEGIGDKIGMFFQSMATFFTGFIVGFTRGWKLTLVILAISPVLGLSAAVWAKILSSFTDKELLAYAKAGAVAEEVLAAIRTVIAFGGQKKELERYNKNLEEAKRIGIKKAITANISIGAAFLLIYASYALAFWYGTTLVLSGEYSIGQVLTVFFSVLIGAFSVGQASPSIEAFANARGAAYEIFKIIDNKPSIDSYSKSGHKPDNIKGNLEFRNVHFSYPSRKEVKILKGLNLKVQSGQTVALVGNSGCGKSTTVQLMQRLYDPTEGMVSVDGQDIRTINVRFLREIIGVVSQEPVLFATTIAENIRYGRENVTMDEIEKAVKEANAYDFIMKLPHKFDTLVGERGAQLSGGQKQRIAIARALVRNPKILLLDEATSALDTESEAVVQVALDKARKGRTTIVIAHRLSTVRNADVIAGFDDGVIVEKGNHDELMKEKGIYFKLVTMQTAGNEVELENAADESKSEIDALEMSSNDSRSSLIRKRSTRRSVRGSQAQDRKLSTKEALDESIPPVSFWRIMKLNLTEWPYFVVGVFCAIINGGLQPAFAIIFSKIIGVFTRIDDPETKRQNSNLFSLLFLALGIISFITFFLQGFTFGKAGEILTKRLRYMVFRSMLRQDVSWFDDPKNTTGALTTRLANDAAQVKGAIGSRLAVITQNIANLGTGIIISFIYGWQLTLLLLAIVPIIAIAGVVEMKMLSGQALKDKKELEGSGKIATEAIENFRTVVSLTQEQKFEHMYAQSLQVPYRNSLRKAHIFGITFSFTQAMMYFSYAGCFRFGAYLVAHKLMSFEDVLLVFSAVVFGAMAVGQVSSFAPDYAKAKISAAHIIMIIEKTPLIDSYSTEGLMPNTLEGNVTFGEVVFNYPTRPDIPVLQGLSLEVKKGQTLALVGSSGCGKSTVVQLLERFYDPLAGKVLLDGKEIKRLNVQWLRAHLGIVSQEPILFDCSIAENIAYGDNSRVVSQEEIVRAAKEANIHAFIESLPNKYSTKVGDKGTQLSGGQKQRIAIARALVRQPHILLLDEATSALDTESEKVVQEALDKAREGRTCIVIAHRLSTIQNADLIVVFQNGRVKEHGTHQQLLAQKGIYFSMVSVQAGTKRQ

[3] = target: T1, Broad substrate specificity ATP-binding cassette transporter ABCG2; assay: Inhibition of ABCG2 in human mitoxantrone-resistant MCF7 cells at 5.6 uM by Hoechst 33342 assay; conditions: mcf7, 5.6 µM
[4] = target: T1, Broad substrate specificity ATP-binding cassette transporter ABCG2; assay: Inhibition of ABCG2 in human mitoxantrone-resistant MCF7 cells by Hoechst 33342 assay using one phase exponential association analysis
[5] = target: T1, Broad substrate specificity ATP-binding cassette transporter ABCG2; assay: Inhibition of ABCG2 in human mitoxantrone-resistant MCF7 cells by Hoechst 33342 assay using linear regression analysis

| SMILES | IC50 [1] | also measured |
| --- | --- | --- |
| COc1ccc(C(=O)Nc2ccccc2C(=O)Nc2ccc(CCN3CCc4cc(OC)c(OC)cc4C3)cc2)cc1OC | 2.09 µM |  |
| O=C(Nc1ccc(CCN2CCc3ccccc3C2)cc1)c1ccccc1[N+](=O)[O-] | 79.4 µM |  |
| COc1cc2c(cc1OC)CN(CCc1ccc(NC(=O)c3cc(OC)c(OC)cc3[N+](=O)[O-])cc1)CC2 | 64.6 µM |  |
| COc1cc2c(cc1OC)CN(CCc1ccc(NC(=O)c3ccnc4ccccc34)cc1)CC2 | 36.3 µM |  |
| COc1cc2c(cc1OC)CN(CCc1ccc(NC(=O)c3cnc4ccccc4n3)cc1)CC2 | 6.03 µM |  |
| COc1cc2c(cc1OC)CN(CCc1ccc(NC(=O)c3ccccc3NC(=O)c3ccc(C)cc3)cc1)CC2 | 3.89 µM |  |
| COc1cc2c(cc1OC)CN(CCc1ccc(NC(=O)c3cnc4ccccc4c3)cc1)CC2 | 24 µM |  |
| Nc1ccccc1C(=O)Nc1ccc(CCN2CCc3ccccc3C2)cc1 | 74.1 µM |  |
| COc1cc2c(cc1OC)CN(CCc1ccc(NC(=O)c3cc4ccccc4cn3)cc1)CC2 | 6.03 µM |  |
| COc1cc2c(cc1OC)CN(CCc1ccc(NC(=O)c3cccc(Br)c3)cc1)CC2 | 22.9 µM |  |
| COc1cc2c(cc1OC)CN(CCc1ccc(NC(=O)c3cccc4ccccc34)cc1)CC2 | 12.9 µM |  |
| COc1cc2c(cc1OC)CN(CCc1ccc(NC(=O)c3ccc4ccccc4c3)cc1)CC2 | 7.24 µM |  |
| COc1ccc(C(=O)Nc2ccc(CCN3CCc4cc(OC)c(OC)cc4C3)cc2)cc1OC | 47.9 µM |  |
| O=C(Nc1ccc(CCN2CCc3ccccc3C2)cc1)c1ccc([N+](=O)[O-])cc1 | 6.61 µM |  |
| COc1cc2c(cc1OC)CN(CCc1ccc(NC(=O)c3ccc(N)cc3)cc1)CC2 | 263 µM |  |
| COc1cc2c(cc1OC)CN(CCc1ccc(NC(=O)c3ccc(Br)cc3)cc1)CC2 | 11.5 µM |  |
| COc1cc2c(cc1OC)CN(CCc1ccc(NC(=O)c3ccccc3NC(=O)c3ccccc3)cc1)CC2 | 3.98 µM |  |
| COc1cc2c(cc1OC)CN(CCc1ccc(NC(=O)c3cc(OC)c(OC)cc3NC(=O)c3cnc4ccccc4c3)cc1)CC2 | 1.45 µM | IC50 [2]: 0.0724 µM |

| SMILES | IC50 [1] | also measured |
| --- | --- | --- |
| COc1cc2c(cc1OC)CN(CCc1ccc(NC(=O)c3ccccc3Br)cc1)CC2 | 21.9 µM |  |
| COc1cc2c(cc1OC)CN(CCc1ccc(NC(=O)c3ccc4ncccc4c3)cc1)CC2 | 14.5 µM |  |
| COc1cc2c(cc1OC)CN(CCc1ccc(NC(=O)c3cccnc3)cc1)CC2 | 44.7 µM |  |
| Nc1ccc(C(=O)Nc2ccc(CCN3CCc4ccccc4C3)cc2)cc1 | 77.6 µM |  |
| O=C(Nc1ccc(CCN2CCc3ccccc3C2)cc1)c1cnc2ccccc2c1 | 5.01 µM |  |
| O=C(Nc1ccccc1C(=O)Nc1ccc(CCN2CCc3ccccc3C2)cc1)c1cnc2ccccc2c1 | 1 µM | Activity [3]: Active; IC50 [4]: 0.676 µM; IC50 [5]: 0.832 µM |
| COc1cc2c(cc1OC)CN(CCc1ccc(NC(=O)c3ccccc3N)cc1)CC2 | 85.1 µM |  |
| COc1cc2c(cc1OC)CN(CCc1ccc(NC(=O)c3ccccc3[N+](=O)[O-])cc1)CC2 | 110 µM |  |
| COc1cc2c(cc1OC)CN(CCc1ccc(NC(=O)c3ccccc3NC(=O)c3cnc4ccccc4c3)cc1)CC2 | 5.01 µM |  |
| COc1cc2c(cc1OC)CN(CCc1ccc(NC(=O)c3ccccc3)cc1)CC2 | 24.5 µM | IC50 [2]: 4.79 µM |
| COc1cc2c(cc1OC)CN(CCc1ccc(NC(=O)C3Oc4ccccc4O3)cc1)CC2 | 15.1 µM | IC50 [2]: 1.41 µM |
| COc1cc2c(cc1OC)CN(CCc1ccc(NC(=O)c3ccc([N+](=O)[O-])cc3)cc1)CC2 | 7.59 µM |  |
| COc1ccc(CCN(C)CCCC(C#N)(c2ccc(OC)c(OC)c2)C(C)C)cc1OC (stereo unspecified) | 525 µM |  |
| COc1ccc([C@@H]2Sc3ccccc3N(CCN(C)C)C(=O)[C@@H]2OC(C)=O)cc1 [DILTIAZEM] | 851 µM |  |
| COC(=O)C1=C(C)NC(C)=C(C(=O)OCCN(C)Cc2ccccc2)C1c1cccc([N+](=O)[O-])c1 (stereo unspecified) [NICARDIPINE] | 16.6 µM |  |
| CC(=O)[C@H]1CC[C@H]2[C@@H]3CCC4=CC(=O)CC[C@]4(C)[C@H]3CC[C@]12C [PROGESTERONE] | 126 µM |  |
| COC(=O)[C@H]1[C@H]2C[C@@H]3c4[nH]c5cc(OC)ccc5c4CCN3C[C@H]2C[C@@H](OC(=O)c2cc(OC)c(OC)c(OC)c2)[C@@H]1OC [RESERPINE] | 26.3 µM |  |
